Laboratory results taken from US12629406B2, “Alterations in endothelin receptors following hemorrhage and resuscitation by centhaquin” (MIDWESTERN UNIVERSITY, priority 2018, dated 2026).

How the values were obtained:
[1] = system: TNF-α; assay: Plasma TNF-α in hemorrhaged rats (ELISA); assay type: in vivo, rat; details: p<0.01
Protocol: (§1) Induction of Hemorrhagic Shock. Hemorrhage was induced by withdrawing blood from the femoral artery at a rate of approximately 0.5 to 1 mL/min until a MAP of 35 mmHg was reached. This MAP was maintained for 30 min by further withdrawal of blood, if necessary. The hemorrhagic shock model used in the present study is a well-established rodent model of manageable pressure hemorrhage (Buehler et al. 2000; Gulati et al. 1997a; Gulati and Sen 1998). The volume of blood loss was about approximately 8.0 ml in each rat and was similar in various groups, amounting to approximately 40% of the total blood. Measured hematocrit levels were similar in various groups. The duration of blood withdrawal was approximately 15 minutes.
(§2) Experimental design. […] The blood samples, for biochemical estimations, were collected at 30 minutes of resuscitation and cardiovascular parameters were monitored till 60 minutes after which the animal was sacrificed. […]

[2] = system: IL-10; assay: Plasma IL-10 in hemorrhaged rats (ELISA); details: rat, in vivo
Protocol: as §1, §2

[3] = Renal medullary blood perfusion (laser Doppler) in hemorrhaged rats; assay type: in vivo, rat
Protocol: Determination of cardiovascular response. The animals were anesthetized with urethane dissolved in isotonic saline. Urethane was administered in a dose of 1.5 g per kg body weight via intraperitoneal injection. Urethane was selected as an anesthetic agent, because it produces long lasting (8-10 hours) anesthesia with minimal cardiovascular and respiratory system depression. It produces a level of surgical anesthesia characterized by preservation of cardiovascular reflexes (Maggi and Meli 1986). Briefly, anaesthetized rats were immobilized on a surgical board equipped with controlled heating pad. […] MAP and HR were measured by cannulating the left femoral artery with pressure catheter SPR-320 (Millar Instruments), connected to the ML221 bridge amplifier (AD Instruments) through AEC-10C connector and the signals were acquired (1000 S^−1) using PowerLab 16/30 data acquisition system (Gulati et al. 2012; Pacher et al. 2008). […]
Induction of Hemorrhagic Shock. […] Measured hematocrit levels were similar in various groups. […]
Experimental design. […] Additional experiments were also carried out where the amount of norepinephrine (a very commonly used vasopressor during resuscitation) required to maintain MAP at 70 mmHg in normal saline (NS) or centhaquin (0.01 mg/kg) treated rats (volume equal to blood loss) was determined. […]

[4] = rat fixed pressure blood loss, rabbit uncontrolled bleeding with trauma, pig massive blood loss; cited from earlier work

With Cc1cccc(N2CCN(CCc3ccc4ccccc4n3)CC2)c1 [centhaquin, 2-[2-(4-(3-methyphenyl)-1-piperazinyl)]ethyl-quinoline] as the molecule, how does the “plasma TNF-α level compared to hypertonic saline alone” value [1] read?
Its value is “further increased”.

What about the “plasma IL-10, hemorrhagic shock versus resuscitation with hypertonic saline or centhaquin” value [2] of the same molecule?
The value was “no statistically significant difference”.

And the “renal blood perfusion compared to equal volume of saline” value ([3]; hemorrhaged female rats)?
The value was “significantly improved”.

What about the “renal blood perfusion compared to equal volume of saline” value ([3]; hemorrhaged male rats, low doses of centhaquin) of the same molecule?
The value was “significantly improved”.

And the “mortality following hypovolemic shock” value [4]?
Its value is “highly effective in reducing the mortality”.
